Assay results taken from patent US9428519B2, “Acylated derivative of homoharringtonine, preparation method therefor, and application thereof” (HANGZHOU BENSHENG PHARMACEUTICAL CO., LTD., priority 2011, dated 2016).
≈ marks a conversion by molar mass, not a printed value.

How the values were obtained:
[1] = system: H9 (acute lymphoblastic leukemia, ALL); experiment: MTT growth inhibition of leukemia cells, 72 h; format: cell-based, human; details: MTT
In short: (§1)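 Readout: MTT viability after 72 h, untreated wells = 100%, IC50 derived from viability across concentrations. Cells seeded at 6000/well in 1640 medium + 10% FBS, dosed with a concentration series, held at 37 °C under 5% CO2.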

[2] = system: Jurkat (acute lymphoblastic leukemia, ALL); experiment: MTT growth inhibition of leukemia cells, 72 h; format: cell-based, human
In short: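 Growth inhibition of the Jurkat ALL line was measured by MTT after 72 hours of compound exposure at 37° C. under 5% CO2. Wells of a 96-well plate held 6000 cells in 1640 medium plus 10% fetal bovine serum; untreated controls defined 100% viability, and inhibitory concentrations were derived from percent viability.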

[3] = system: K562/adr (drug-resistant, chronic myeloid leukemia, CML); experiment: MTT growth inhibition of leukemia cells, 72 h; format: cell-based, human; details: MTT
In short: as §1

[4] = system: Kasumi-1 (acute myeloid leukemia M2 type, AML-M2); experiment: MTT growth inhibition of leukemia cells, 72 h; format: cell-based, human
In short: as §1

[5] = system: NB4 (acute promyelocytic leukemia, AML); experiment: MTT growth inhibition of leukemia cells, 72 h; format: cell-based, human; details: MTT
In short: as §1

[6] = system: RPMI8226 (multiple myeloma); experiment: MTT growth inhibition of multiple myeloma cells, 72 h; format: cell-based, human
In short: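 Growth inhibition read by MTT after 72 h compound exposure (37 °C, 5% CO2) of 6000 RPMI8226 cells per well in 1640 medium plus 10% fetal bovine serum. Viability expressed against untreated cells (100%), from which the 72 h IC50 was derived.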

A549 (human lung cancer) = experiment: MTT growth inhibition of human solid tumor cells, 72 h; format: cell-based
In short: (§2)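 4000 cells/well, DMEM high glucose + 10% FBS, 37° C, 5% CO2; 24 h attachment. Add compound, various concentrations, 72 h. MTT readout; % viability vs untreated control (100%).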

[7] = system: Becap37 (human breast cancer cell); experiment: as above; format: cell-based
In short: as §2

[8] = system: CNE (nasopharyngeal carcinoma cell); experiment: as above; format: cell-based
In short: as §2

[9] = system: CaES-17 (esophageal cancer cell); experiment: as above; format: cell-based
In short: as §2

[10] = system: Hela (human cervical cancer cell); experiment: as above; format: cell-based
In short: as §2

[11] = system: Hep-2 (laryngeal carcinoma); experiment: as above; format: cell-based
In short: as §2

[12] = system: Huh7 (human liver cancer cell); experiment: as above; format: cell-based
In short: as §2

MG63 (osteosarcoma) = experiment: as above; format: cell-based
In short: as §2

[13] = system: MGC 803 (human gastric cancer cell); experiment: as above; format: cell-based
In short: as §2

[14] = system: PANC-1 (pancreatic cancer); experiment: as above; format: cell-based
In short: as §2

PC-3 (prostate cancer) = experiment: as above; format: cell-based; details: MTT
In short: as §2

[15] = system: RKO (human colon adenocarcinoma cell); experiment: as above; format: cell-based
In short: as §2

[16] = system: SK-OV-3 (ovarian cancer cell); experiment: as above; format: cell-based
In short: as §2

[17] = system: U87 MG (malignant glioma cell); experiment: as above; format: cell-based
In short: as §2

SMILES: COC(=O)C[C@](O)(CCCC(C)(C)OC(=O)c1scnc1C)C(=O)O[C@@H]1C(OC)=C[C@]23CCCN2CCc2cc4c(cc2[C@H]13)OCO4 [BS-HH-0721]
- IC50 ([1]; Homo sapiens): 0.003 µg/mL (≈ 0.00447 µM)
- IC90 ([1]; Homo sapiens): 0.009 µg/mL (≈ 0.0134 µM)
- IC50 ([2]; Homo sapiens, Jurkat): 0.002 µg/mL (≈ 0.00298 µM)
- IC90 ([2]; Homo sapiens, Jurkat): ≥ 16 µg/mL
- IC50 ([3]; Homo sapiens, K562/Adr): 0.01 µg/mL (≈ 0.0149 µM)
- IC90 ([3]; Homo sapiens, K562/Adr): 0.05 µg/mL (≈ 0.0745 µM)
- IC50 ([4]; Homo sapiens, Kasumi 1, MTT): 0.002 µg/mL (≈ 0.00298 µM)
- IC90 ([4]; Homo sapiens, Kasumi 1, MTT): 0.004 µg/mL (≈ 0.00596 µM)
- IC50 ([5]; Homo sapiens): 0.003 µg/mL (≈ 0.00447 µM)
- IC90 ([5]; Homo sapiens): 0.005 µg/mL (≈ 0.00745 µM)
- IC50 ([6]; Homo sapiens, RPMI-8226, MTT): 0.002 µg/mL (≈ 0.00298 µM)
- IC90 ([6]; Homo sapiens, RPMI-8226, MTT): 0.014 µg/mL (≈ 0.0209 µM)
- IC50 (A549 (human lung cancer); Homo sapiens, A549): 0.01 µg/mL (≈ 0.0149 µM)
- IC90 (A549 (human lung cancer); Homo sapiens, A549): > 16 µg/mL
- IC50 ([7]; Homo sapiens): 0.003 µg/mL (≈ 0.00447 µM)
- IC90 ([7]; Homo sapiens): 8.17 µg/mL (≈ 12.2 µM)
- IC50 ([8]; Homo sapiens, MTT): 0.0037 µg/mL (≈ 0.00552 µM)
- IC90 ([8]; Homo sapiens, MTT): > 16 µg/mL
- anti-CNE effect relative to homoharringtonine ([8]; vs HHT): more than 10 fold
- IC50 ([9]; Homo sapiens, CaEs17): 0.014 µg/mL (≈ 0.0209 µM)
- IC90 ([9]; Homo sapiens, CaEs17): 16 µg/mL (≈ 23.9 µM)
- IC50 ([10]; Homo sapiens, HeLa, MTT): 0.005 µg/mL (≈ 0.00745 µM)
- IC90 ([10]; Homo sapiens, HeLa, MTT): 16 µg/mL (≈ 23.9 µM)
- anti-Hela effect relative to homoharringtonine ([10]; vs HHT): > 4.0 fold
- IC50 ([11]; Homo sapiens, HEp-2): 0.004 µg/mL (≈ 0.00596 µM)
- IC90 ([11]; Homo sapiens, HEp-2): > 16 µg/mL
- IC50 ([12]; Homo sapiens, Huh-7): 0.0022 µg/mL (≈ 0.00328 µM)
- IC90 ([12]; Homo sapiens, Huh-7): 0.038 µg/mL (≈ 0.0567 µM)
- IC50 (MG63 (osteosarcoma); Homo sapiens, MG-63, MTT): 0.006 µg/mL (≈ 0.00894 µM)
- IC90 (MG63 (osteosarcoma); Homo sapiens, MG-63, MTT): 0.44 µg/mL (≈ 0.656 µM)
- anti-MG63 effect relative to homoharringtonine (MG63 (osteosarcoma); vs HHT): substantially superior
- IC50 ([13]; Homo sapiens, MGC-803): 0.006 µg/mL (≈ 0.00894 µM)
- IC90 ([13]; Homo sapiens, MGC-803): 0.019 µg/mL (≈ 0.0283 µM)
- IC50 ([14]; Homo sapiens, PANC-1, MTT): 0.009 µg/mL (≈ 0.0134 µM)
- IC90 ([14]; Homo sapiens, PANC-1, MTT): > 16 µg/mL
- anti-PANC-1 effect relative to homoharringtonine ([14]; vs HHT): > 4 fold
- IC50 (PC-3 (prostate cancer); Homo sapiens): 0.04 µg/mL (≈ 0.0596 µM)
- IC90 (PC-3 (prostate cancer); Homo sapiens): > 16 µg/mL
- IC50 ([15]; Homo sapiens, MTT): 0.0009 µg/mL (≈ 0.00134 µM)
- IC90 ([15]; Homo sapiens, MTT): 0.005 µg/mL (≈ 0.00745 µM)
- anti-RKO effect relative to homoharringtonine ([15]; vs HHT): substantially superior
- IC50 ([16]; Homo sapiens, SK-OV-3, MTT): 0.022 µg/mL (≈ 0.0328 µM)
- IC90 ([16]; Homo sapiens, SK-OV-3, MTT): > 16 µg/mL
- IC50 ([17]; Homo sapiens, U-87 MG): 0.008 µg/mL (≈ 0.0119 µM)
- IC90 ([17]; Homo sapiens, U-87 MG): 0.07 µg/mL (≈ 0.104 µM)

SMILES: COC(=O)C[C@@](CCCC(C)(C)OC(=O)c1scnc1C)(OC(=O)c1scnc1C)C(=O)O[C@@H]1C(OC)=C[C@]23CCCN2CCc2cc4c(cc2[C@H]13)OCO4 [BS-HH-0722]
- IC50 H9 [1]: 0.47 µg/mL (≈ 0.591 µM)
- IC90 H9 [1]: 1.24 µg/mL (≈ 1.56 µM)
- IC50 Jurkat [2]: 0.3 µg/mL (≈ 0.377 µM)
- IC90 Jurkat [2]: ≥ 16 µg/mL
- IC50 K562/adr [3]: 0.9 µg/mL (≈ 1.13 µM)
- IC90 K562/adr [3]: 3.72 µg/mL (≈ 4.67 µM)
- IC50 Kasumi-1 ([4]; MTT): 0.14 µg/mL (≈ 0.176 µM)
- IC90 Kasumi-1 ([4]; MTT): 0.47 µg/mL (≈ 0.591 µM)
- IC50 NB4 [5]: 0.2 µg/mL (≈ 0.251 µM)
- IC90 NB4 [5]: 0.49 µg/mL (≈ 0.616 µM)
- IC50 RPMI8226 ([6]; MTT): 0.29 µg/mL (≈ 0.364 µM)
- IC90 RPMI8226 ([6]; MTT): 1.82 µg/mL (≈ 2.29 µM)
- IC50 A549 (A549 (human lung cancer)): 0.89 µg/mL (≈ 1.12 µM)
- IC90 A549 (A549 (human lung cancer)): >16 µg/mL
- IC50 Becap37 [7]: 0.47 µg/mL (≈ 0.591 µM)
- IC90 Becap37 [7]: 16 µg/mL (≈ 20.1 µM)
- IC50 CNE ([8]; MTT): 0.77 µg/mL (≈ 0.967 µM)
- IC90 CNE ([8]; MTT): >16 µg/mL
- IC50 CaES-17 [9]: 1.24 µg/mL (≈ 1.56 µM)
- IC90 CaES-17 [9]: 16 µg/mL (≈ 20.1 µM)
- IC50 Hela ([10]; MTT): 0.87 µg/mL (≈ 1.09 µM)
- IC90 Hela ([10]; MTT): >16 µg/mL
- IC50 Hep-2 [11]: 0.48 µg/mL (≈ 0.603 µM)
- IC90 Hep-2 [11]: >16 µg/mL
- IC50 Huh7 [12]: 0.66 µg/mL (≈ 0.829 µM)
- IC90 Huh7 [12]: 7.6 µg/mL (≈ 9.55 µM)
- IC50 MG 63 (MG63 (osteosarcoma); MTT): 0.21 µg/mL (≈ 0.264 µM)
- IC90 MG 63 (MG63 (osteosarcoma); MTT): 9.43 µg/mL (≈ 11.8 µM)
- IC50 MGC 803 [13]: 0.5 µg/mL (≈ 0.628 µM)
- IC90 MGC 803 [13]: 12 µg/mL (≈ 15.1 µM)
- IC50 PANC-1 ([14]; MTT): 0.83 µg/mL (≈ 1.04 µM)
- IC90 PANC-1 ([14]; MTT): >16 µg/mL
- IC50 PC-3 (PC-3 (prostate cancer)): 0.82 µg/mL (≈ 1.03 µM)
- IC90 PC-3 (PC-3 (prostate cancer)): >16 µg/mL
- IC50 RKO ([15]; MTT): 0.22 µg/mL (≈ 0.276 µM)
- IC90 RKO ([15]; MTT): 0.87 µg/mL (≈ 1.09 µM)
- IC50 SK-OV-3 ([16]; MTT): 1.94 µg/mL (≈ 2.44 µM)
- IC90 SK-OV-3 ([16]; MTT): >16 µg/mL
- IC50 U87 MG [17]: 0.67 µg/mL (≈ 0.842 µM)
- IC90 U87 MG [17]: 3.42 µg/mL (≈ 4.3 µM)
